Results: patent publication US20250019387A1 (Frontier Medicines Corporation, priority 0001, published 2025)

These molecules were tested against KRAS G12C and cRAF (Ras-binding domain) interaction (Homo sapiens (Human), UniProt P01116, C118S/C51S/C80L/G12C) (assay: Inhibition of KRAS G12C and cRAF binding (AlphaScreen)). Settings: GMPPNP-loaded KRAS G12C, 19-20 hours incubation with compound; read-out: IC50 (Inhibition of KRAS G12C and cRAF Binding).
Method in brief: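 Compounds (DMSO) preincubated 19-20 h at room temperature, then RBD with streptavidin donor and glutathione acceptor beads added in 25 mM Hepes pH 7.4, 150 mM NaCl, 5 mM MgCl2, 0.01% Triton X-100, 2% DMSO for 60-90 min. Emission 570 nm (excitation 680 nm); IC50 by 4-parameter fit. Counter-screen used biotin-AviTag-GST instead of RBD.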

KRAS G12C and cRAF (Ras-binding domain) interaction, sequence (P01116 other isoform, or with tags, fused parts or gaps G12C/C51S/C80L/C118S): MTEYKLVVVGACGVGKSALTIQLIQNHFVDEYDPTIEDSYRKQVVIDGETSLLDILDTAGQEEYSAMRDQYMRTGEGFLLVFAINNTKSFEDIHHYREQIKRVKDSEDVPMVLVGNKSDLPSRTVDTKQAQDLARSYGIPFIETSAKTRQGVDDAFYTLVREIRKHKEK

Compared with `CN(CC1CN(C(=O)/C=C/[C@H]2CCN2C)C1)c1nc(OC[C@@]23CCCN2C[C@H](F)C3)nc2c(F)c(-c3cccc4ccc(F)c(Cl)c34)ncc12` [Example 221, (E)-1-(3-(((7-(8-chloro-7-fluoronaphthalen-1-yl)-8-fluoro-2-(((2R,7aS)-2-fluorotetrahydro-1H-pyrrolizin-7a(5H)-yl)methoxy)pyrido[4,3-d]pyrimidin-4-yl)(methyl)amino)methyl)azetidin-1-yl)-3-((R)-1-methylazetidin-2-yl)prop-2-en-1-one], `CN(CC1CN(C(=O)/C=C/[C@@H]2CCN2C)C1)c1nc(OC[C@@]23CCCN2C[C@H](F)C3)nc2c(F)c(-c3cccc4cccc(Cl)c34)ncc12` [Example 218, (E)-1-(3-(((7-(8-chloronaphthalen-1-yl)-8-fluoro-2-(((2R,7aS)-2-fluorotetrahydro-1H-pyrrolizin-7a(5H)-yl)methoxy)pyrido[4,3-d]pyrimidin-4-yl)(methyl)amino)methyl)azetidin-1-yl)-3-((S)-1-methylazetidin-2-yl)prop-2-en-1-one] is higher in IC50: under 10 nM for the first, 10 to 100 nM for the second.

First: CCc1c(F)ccc2cccc(-c3ncc4c(N(C)[C@@H]5CCN(C(=O)/C=C/c6cc(C)nc(C)n6)C5)nc(OC[C@@]56CCCN5C[C@H](F)C6)nc4c3F)c12 [Example 279, (E)-3-(2,6-dimethylpyrimidin-4-yl)-1-((R)-3-((7-(8-ethyl-7-fluoronaphthalen-1-yl)-8-fluoro-2-(((2R,7aS)-2-fluorotetrahydro-1H-pyrrolizin-7a(5H)-yl)methoxy)pyrido[4,3-d]pyrimidin-4-yl)(methyl)amino)pyrrolidin-1-yl)prop-2-en-1-one]
Second: Cc1c(F)ccc2cccc(-c3ncc4c(N(C)[C@@H]5CCN(C(=O)/C=C/[C@H]6CCN6C)C5)nc(OC[C@@]56CCCN5C[C@H](F)C6)nc4c3F)c12 [Example 206, (E)-1-((R)-3-((8-fluoro-7-(7-fluoro-8-methylnaphthalen-1-yl)-2-(((2R,7aS)-2-fluorotetrahydro-1H-pyrrolizin-7a(5H)-yl)methoxy)pyrido[4,3-d]pyrimidin-4-yl)(methyl)amino)pyrrolidin-1-yl)-3-((R)-1-methylazetidin-2-yl)prop-2-en-1-one]
The IC50 of the first is higher: 100 to 500 nM for the first, 10 to 100 nM for the second.

First: CN(c1nc(OC[C@@]23CCCN2C[C@H](F)C3)nc2c(F)c(-c3cccc4ccc(F)c(Cl)c34)ncc12)[C@@H]1CCN(C(=O)C#CCN2CC(F)C2)C1 [Example 225, 1-((R)-3-((7-(8-chloro-7-fluoronaphthalen-1-yl)-8-fluoro-2-(((2R,7aS)-2-fluorohexahydro-1H-pyrrolizin-7a-yl)methoxy)pyrido[4,3-d]pyrimidin-4-yl)(methyl)amino)pyrrolidin-1-yl)-4-(3-fluoroazetidin-1-yl)but-2-yn-1-one]
Second: CN(c1nc(OC[C@@]23CCCN2C[C@H](F)C3)nc2c(F)c(-c3cccc4ccc(F)c(Cl)c34)ncc12)[C@@H]1CCN(C(=O)/C=C/CN2CCOCC2)C1 [Example 96, (E)-1-((R)-3-((7-(8-chloro-7-fluoronaphthalen-1-yl)-8-fluoro-2-(((2R,7aS)-2-fluorotetrahydro-1H-pyrrolizin-7a(5H)-yl)methoxy)pyrido[4,3-d]pyrimidin-4-yl)(methyl)amino)pyrrolidin-1-yl)-4-morpholinobut-2-en-1-one]
The IC50 of the first is lower: 10 to 100 nM for the first, 100 to 500 nM for the second. The first is the more potent here.

Compared with `CN(CCNC(=O)/C=C/S(C)(=O)=O)c1nc(OC[C@@H]2CCCN2C)nc2c1CCN(c1cccc3cccc(Cl)c13)C2` [Example 23, (S,E)-N-(2-((7-(8-chloronaphthalen-1-yl)-2-((1-methylpyrrolidin-2-yl)methoxy)-5,6,7,8-tetrahydropyrido[3,4-d]pyrimidin-4-yl)(methyl)amino)ethyl)-3-(methylsulfonyl)acrylamide], `CN(CC1CCN(C#N)C1)c1nc(OC[C@@H]2CCCN2C)nc2c1CCN(c1cccc3cccc(Cl)c13)C2` (stereo partly drawn) [Example 31, 3-(((7-(8-chloronaphthalen-1-yl)-2-(((S)-1-methylpyrrolidin-2-yl)methoxy)-5,6,7,8-tetrahydropyrido[3,4-d]pyrimidin-4-yl)(methyl)amino)methyl)pyrrolidine-1-carbonitrile] is higher in IC50: 10 to 100 nM for the first, over 500 nM for the second.

First: C=CC(=O)N1CC[C@@H](N(C)c2nc(OCC34CCCN3CCC4)nc3c(F)c(-c4cccc5ccc(F)c(CC)c45)ncc23)C1 [Example 253, (R)-1-(3-((7-(8-ethyl-7-fluoronaphthalen-1-yl)-8-fluoro-2-((tetrahydro-1H-pyrrolizin-7a(5H)-yl)methoxy)pyrido[4,3-d]pyrimidin-4-yl)(methyl)amino)pyrrolidin-1-yl)prop-2-en-1-one]
Second: C=CC(=O)N1C[C@@H](F)[C@H](N(C)c2nc(OCC34CCCN3CCC4)nc3c(F)c(-c4cccc5ccc(F)c(Cl)c45)ncc23)C1 [Example 184, 1-((3R,4R)-3-((7-(8-chloro-7-fluoronaphthalen-1-yl)-8-fluoro-2-((hexahydro-1H-pyrrolizin-7a-yl)methoxy)pyrido[4,3-d]pyrimidin-4-yl)(methyl)amino)-4-fluoropyrrolidin-1-yl)prop-2-en-1-one]
The IC50 of the first is higher: 100 to 500 nM for the first, 10 to 100 nM for the second.

First: CC(C)c1noc(/C=C/C(=O)N2CC[C@@H](N(C)c3nc(OC[C@@]45CCCN4C[C@H](F)C5)nc4c3CCN(c3cccc5ccc(F)c(Cl)c35)C4)C2)n1 [Example 99, (E)-1-((R)-3-((7-(8-chloro-7-fluoronaphthalen-1-yl)-2-(((2R,7aS)-2-fluorohexahydro-1H-pyrrolizin-7a-yl)methoxy)-5,6,7,8-tetrahydropyrido[3,4-d]pyrimidin-4-yl)(methyl)amino)pyrrolidin-1-yl)-3-(3-isopropyl-1,2,4-oxadiazol-5-yl)prop-2-en-1-one]
Second: CN(c1nc(OC[C@@]23CCCN2C[C@H](F)C3)nc2c1CCN(c1cccc3cccc(Cl)c13)C2)[C@@H]1CCN(C(=O)/C=C/c2nc(C3COC3)no2)C1 [Example 154, (E)-1-((R)-3-((7-(8-chloronaphthalen-1-yl)-2-(((2R,7aS)-2-fluorohexahydro-1H-pyrrolizin-7a-yl)methoxy)-5,6,7,8-tetrahydropyrido[3,4-d]pyrimidin-4-yl)(methyl)amino)pyrrolidin-1-yl)-3-(3-(oxetan-3-yl)-1,2,4-oxadiazol-5-yl)prop-2-en-1-one]
The IC50 of the first is higher: 10 to 100 nM for the first, under 10 nM for the second. The second is the more potent here.

Compared with `Cc1nccc(/C=C/C(=O)N2CCC(Nc3nc(OC[C@@]45CCCN4C[C@H](F)C5)nc4c(F)c(-c5cccc6cccc(Cl)c56)ncc34)CC2)n1` [Example 261, (E)-1-(4-((7-(8-chloronaphthalen-1-yl)-8-fluoro-2-(((2R,7aS)-2-fluorotetrahydro-1H-pyrrolizin-7a(5H)-yl)methoxy)pyrido[4,3-d]pyrimidin-4-yl)amino)piperidin-1-yl)-3-(2-methylpyrimidin-4-yl)prop-2-en-1-one], `C=CC(=O)N1CC[C@@H](N(C)c2nc(OC[C@@]34CCCN3C[C@H](F)C4)nc3c(F)c(-c4cccc5cccc(C#N)c45)ncc23)C1` [Example 297, 8-(4-(((R)-1-acryloylpyrrolidin-3-yl)(methyl)amino)-8-fluoro-2-(((2R,7aS)-2-fluorotetrahydro-1H-pyrrolizin-7a(5H)-yl)methoxy)pyrido[4,3-d]pyrimidin-7-yl)-1-naphthonitrile] is lower in IC50: over 500 nM for the first, 100 to 500 nM for the second. The second is the more potent here.

`COC(=O)/C=C/C(=O)N1CC[C@@H](N(C)c2nc(OC[C@@H]3CCCN3C)nc3c2CCN(c2cccc4ccc(F)c(Cl)c24)C3)C1` [Example 3, methyl(E)-4-((R)-3-((7-(8-chloro-7-fluoronaphthalen-1-yl)-2-(((S)-1-methylpyrrolidin-2-yl)methoxy)-5,6,7,8-tetrahydropyrido[3,4-d]pyrimidin-4-yl)(methyl)amino)pyrrolidin-1-yl)-4-oxobut-2-enoate] gave an IC50 of 10 to 100 nM.

Same assay, conditions: additional exemplary compounds; KRAS G12C and cRAF binding; read-out: RAF1 RBD IC50

`C=CC(=O)N1CCC1CN(C)c1nc(OC[C@@]23CCCN2C[C@H](F)C3)nc2c(F)c(-c3cccc4cccc(Cl)c34)ncc12` (stereo partly shown) and `C=CC(=O)N1CC[C@H]1CN(C)c1nc(OC[C@@]23CCCN2C[C@H](F)C3)nc2c(F)c(-c3cccc4cccc(Cl)c34)ncc12` cannot be ordered by IC50: over 500 nM for the first, over 500 nM for the second.

`C=CC(=O)N1CC(N(C)c2nc(OCC34CCCN3CCC4)nc3c2CCN(c2cccc4cccc(Cl)c24)C3)C1` and `C=CC(=O)N1CC[C@@H](N(C)c2nc(OC[C@]34CCCN3C[C@@H](F)C4)nc3c2CCN(c2cccc4cccc(Cl)c24)C3)C1` cannot be ordered by IC50: over 500 nM for the first, over 500 nM for the second.

`CN(C)C/C=C/C(=O)N1CC(CN(C)c2nc(OCC34CCCN3CCC4)nc3c2CCN(c2cccc4cccc(Cl)c24)C3)C1` and `CN(CCC1CN(C#N)C1)c1nc(OCC23CCCN2CCC3)nc2c1CCN(c1cccc3cccc(Cl)c13)C2` fall in the same range of IC50: 100 to 500 nM for the first, 100 to 500 nM for the second.

`C=CC(=O)N(C)C[C@H]1CCN1c1nc(OC[C@@]23CCCN2C[C@H](F)C3)nc2c(F)c(-c3cccc4cccc(Cl)c34)ncc12` and `O=C(/C=C/CN1CCOCC1)N1CC2CC(C1)N2c1nc(OC[C@@]23CCCN2C[C@H](F)C3)nc2c(F)c(-c3cccc4cccc(Cl)c34)ncc12` cannot be ordered by IC50: over 500 nM for the first, over 500 nM for the second.

`C=CC(=O)N1CC(CNc2nc(OC[C@@]34CCCN3C[C@H](F)C4)nc3c2CCN(c2cccc4cccc(Cl)c24)C3)C1` and `CN(CC1(C)CN(C#N)C1)c1nc(OC[C@@H]2CCCN2C)nc2c1CCN(c1cccc3cccc(Cl)c13)C2` cannot be ordered by IC50: over 500 nM for the first, over 500 nM for the second.

`C#Cc1c(F)ccc2cccc(-c3ncc4c(N(C)[C@@H]5CCN(C(=O)/C=C/c6cccnc6)C5)nc(OC[C@@]56CCCN5C[C@H](F)C6)nc4c3F)c12` and `CN(CC1CN(C#N)C1)c1nc(OC[C@@H]2CCCN2C)nc2c(F)c(-c3cccc4cccc(Cl)c34)ncc12` cannot be ordered by IC50: over 500 nM for the first, over 500 nM for the second.

With `CN(C)C/C=C/S(=O)(=O)CCN(C)c1nc(OC[C@@H]2CCCN2C)nc2c(F)c(-c3cccc4cccc(Cl)c34)ncc12` the IC50 was 10 to 100 nM.
